Test results from patent US11952354B1, “5-((2-isopropyl-5-methylphenoxy)methyl)-3-(naphthalen-2-yl)-1,2,4-oxadiazole as an anti-cancer and antimicrobial compound” (KING FAISAL UNIVERSITY, priority 2023, dated 2024).

Assays:
[1] = system: Bacillus Cereus; test: agar plate disc-diffusion, antibacterial inhibition zone; type: cell-based
Experimental: (§1) The agar plate disc-diffusion method was applied. […] The discs were then placed onto the surface of agar plates (nutrient agar for bacteria and Sabouraud's dextrose agar for fungi) seeded with the test organism. Each plate contained 15 mL of the agar medium, previously seeded with 0.2 mL of the broth culture of each organism pregrown for 18 hours. The plates were incubated at 37° C. for 48 h, and 72 h for fungi. The inhibition zones were measured in mm. Discs impregnated with DMSO were used as a control, and its inhibition zone was subtracted from the tested compound actual inhibition zone.

[2] = system: Escherichia coli; test: as above; type: cell-based
Experimental: as §1

[3] = system: Pseudomonas aeruginosa; test: as above; type: cell-based
Experimental: as §1

[4] = system: Staphylococcus aureus; test: as above; type: cell-based
Experimental: as §1

[5] = system: Aspergillus flavus; test: agar plate disc-diffusion, antifungal inhibition zone; type: cell-based
Experimental: as §1

[6] = system: Chrysosporium keratinophilum; test: as above; type: cell-based
Experimental: as §1

[7] = system: human osteosarcoma cells (MG-63); test: cytotoxicity by SRB assay; type: cell-based; conditions: MG-63 cells, 0.01 μM to 100 μM for 72 h
Source text: (§2) The anticancer activity of the described synthesized compounds against highly aggressive androgen-independent metastatic human prostate cancer cells (PC3) and osteosarcoma (MG-63) cells. The human prostate cancer cells (PC3) and human osteosarcoma cells (MG-63) were obtained from Nawah Scientific Inc. (Mokatam, Cairo, Egypt) and cultured in DMEM (Dulbecco's modified eagle's medium), Gibco, USA, supplemented with fetal bovine serum (FBS) at a concentration of 10% and 100 U/mL of penicillin and streptomycin (PS). The Cells were incubated at 37° C. in a humidified environment that contained 5% CO2.
(§3) Cells were seeded in 96-well plates as aliquots of 100 μL cell suspension and incubated in a complete media for 24 h. afterward, cells were treated with 5-((2-isopropyl-5-methylphenoxy)methyl)-3-(naphthalen-2-yl)-1,2,4-oxadiazole at diverse concentrations ranging from 0.01 μM to 100 μM for 72 h. Then, cells were fixed at 4° C. for one hour with 150 μL of 10% trichloroacetic acid (TCA). […] Then, 150 μL of Tris pH 10.5 (10 mM) was added, and the absorbance was measured at 540 nm using a BMG LABTECH®-FLUOstar Omega microplate reader (Ortenberg, Germany). Half maximal inhibitory concentrations (IC50) values were calculated for each experiment using GraphPad Prism 6 software. […]
(§4) The inhibition was calculated using the following equation: Inhibition %=100−Average Viability

[8] = system: human prostate cancer cells (PC3); test: cytotoxicity by SRB assay; type: cell-based; conditions: 0.01 μM to 100 μM for 72 h
Source text: as §2, §3, §4

[9] = system: different microbes; test: agar plate disc-diffusion, overall antimicrobial activity; type: cell-based; conditions: against different microbes (bacteria and fungi)
Experimental: The agar plate disc-diffusion method was applied. Sterilized filter papers (6 mm in diameter) were wetted with 10 μL of a solution of 5-((2-isopropyl-5-methylphenoxy)methyl)-3-(naphthalen-2-yl)-1,2,4-oxadiazole (3) to be tested, containing 10 mg/mL in DMSO, and the discs were allowed to air dry. The discs were then placed onto the surface of agar plates (nutrient agar for bacteria and Sabouraud's dextrose agar for fungi) seeded with the test organism. Each plate contained 15 mL of the agar medium, previously seeded with 0.2 mL of the broth culture of each organism pregrown for 18 hours. The plates were incubated at 37° C. for 48 h, and 72 h for fungi. The inhibition zones were measured in mm. Discs impregnated with DMSO were used as a control, and its inhibition zone was subtracted from the tested compound actual inhibition zone.

[10] = A = concentration of comp. = 10,000 μL
[11] = B = concentration of comp. = 30,000 μL
[12] = C = concentration of comp. = 50,000 μL

Row | Structure (SMILES) | inhibition zone [1, 10] [mm] | inhibition zone [1, 11] [mm] | inhibition zone [1, 12] [mm] | inhibition zone [2, 10] [mm] | inhibition zone [2, 11] [mm] | inhibition zone [2, 12] [mm] | inhibition zone [3, 10] [mm] | inhibition zone [3, 11] [mm] | inhibition zone [3, 12] [mm] | inhibition zone [4, 10] [mm] | inhibition zone [4, 11] [mm] | inhibition zone [4, 12] [mm] | inhibition zone [5, 10] [mm] | inhibition zone [5, 11] [mm] | inhibition zone [5, 12] [mm] | inhibition zone [6, 10] [mm] | inhibition zone [6, 11] [mm] | inhibition zone [6, 12] [mm] | other results
1 | O=C(O)c1cn(C2CC2)c2cc(N3CCNCC3)c(F)cc2c1=O [Cip., ciprofloxacin, reference compound] | 29 | 30 | 42 | 30 | 39 | 60 | 29 | 30 | 53 | 43 | 44 | 53 | 29 | 30 | 42 | 29 | 30 | 53 | 
2 | Cc1ccc(C(C)C)c(OCc2nc(-c3ccc4ccccc4c3)no2)c1 [compound 3, 5-((2-isopropyl-5-methylphenoxy)methyl)-3-(naphthalen-2-yl)-1,2,4-oxadiazole] | 24 | 27 | 38 | 28 | 34 | 49 | 25 | 29 | 40 | 17 | 24 | 32 | 20 | 25 | 33 | 26 | 29 | 45 | antiproliferative activity [7]: excellent antiproliferative activities; antiproliferative activity [8]: excellent antiproliferative activities; antimicrobial activity [9]: excellent antimicrobial activities; melting point: 187 to 188 °C
